In ChEMBL document CHEMBL2424575 (Eur J Med Chem, 2013):
pIC50: −log10 of the molar value.

Experiments:
[1] = molecular target: Dipeptidyl peptidase 8 (Homo sapiens, UniProt Q6V1X1); assay: Inhibition of DPP-8 (unknown origin)
[2] = molecular target: Dipeptidyl peptidase 9 (Homo sapiens, UniProt Q86TI2)
Description: Inhibition of DPP-9 (unknown origin)

[3] = molecular target: Cytochrome P450 3A4 (Homo sapiens, UniProt P08684); assay: Inhibition of CYP3A (unknown origin); format: ADME
[4] = test system: Mus musculus; assay: In vivo inhibition of DPP-4 in ICR mouse assessed as cleavage rate of Gly-Pro-AMC in plasma at 1 mg/kg, po measured at 24 hrs by fluorescence assay relative to control; format: functional
[5] = test system: Mus musculus; assay: In vivo inhibition of DPP-4 in ICR mouse assessed as cleavage rate of Gly-Pro-AMC in plasma at 1 mg/kg, po measured at 7 hrs by fluorescence assay relative to control; format: functional
[6] = test system: Mus musculus; assay: In vivo inhibition of DPP-4 in ICR mouse assessed as cleavage rate of Gly-Pro-AMC in plasma at 1 mg/kg, po measured at 4.5 hrs by fluorescence assay relative to control; format: functional
[7] = test system: Mus musculus; assay: In vivo inhibition of DPP-4 in ICR mouse assessed as cleavage rate of Gly-Pro-AMC in plasma at 1 mg/kg, po measured at 0.5 hrs by fluorescence assay relative to control; format: functional
[8] = test system: Mus musculus; assay: In vivo inhibition of DPP-4 in ICR mouse assessed as cleavage rate of Gly-Pro-AMC in plasma at 3 mg/kg, po measured at 24 hrs by fluorescence assay relative to control; format: functional
[9] = test system: Mus musculus; assay: In vivo inhibition of DPP-4 in ICR mouse assessed as cleavage rate of Gly-Pro-AMC in plasma at 3 mg/kg, po measured at 7 hrs by fluorescence assay relative to control; format: functional
[10] = test system: Mus musculus; assay: In vivo inhibition of DPP-4 in ICR mouse assessed as cleavage rate of Gly-Pro-AMC in plasma at 3 mg/kg, po measured at 4.5 hrs by fluorescence assay relative to control; format: functional
[11] = test system: Mus musculus; assay: In vivo inhibition of DPP-4 in ICR mouse assessed as cleavage rate of Gly-Pro-AMC in plasma at 3 mg/kg, po measured at 0.5 hrs by fluorescence assay relative to control; format: functional
[12] = Half life in Sprague-Dawley rat at 25 mg/kg, po; format: ADME, organism-based; set-up: dose 25 mg/kg, route oral; details: in vivo
[13] = Oral bioavailability in Sprague-Dawley rat at 25 mg/kg; format: ADME, organism-based; details: in vivo
[14] = Apparent volume of distribution during terminal phase in Sprague-Dawley rat at 5 mg/kg, iv and 25 mg/kg, po; format: ADME, organism-based; details: in vivo, read-out: Vz/F
[15] = AUC (0 to t) in Sprague-Dawley rat at 25 mg/kg, po; format: ADME, organism-based; set-up: dose 25 mg/kg, route oral; details: plasma
[16] = Plasma clearance in Sprague-Dawley rat at 5 mg/kg, iv and 25 mg/kg, po; format: ADME, organism-based
[17] = Half life in Sprague-Dawley rat at 5 mg/kg, iv; format: ADME, organism-based; set-up: dose 5 mg/kg, route intravenous; details: in vivo
[18] = molecular target: Voltage-gated inwardly rectifying potassium channel KCNH2 (Homo sapiens, UniProt Q12809); assay: Inhibition of human ERG
Sequence of Voltage-gated inwardly rectifying potassium channel KCNH2 (Q12809 whole entry): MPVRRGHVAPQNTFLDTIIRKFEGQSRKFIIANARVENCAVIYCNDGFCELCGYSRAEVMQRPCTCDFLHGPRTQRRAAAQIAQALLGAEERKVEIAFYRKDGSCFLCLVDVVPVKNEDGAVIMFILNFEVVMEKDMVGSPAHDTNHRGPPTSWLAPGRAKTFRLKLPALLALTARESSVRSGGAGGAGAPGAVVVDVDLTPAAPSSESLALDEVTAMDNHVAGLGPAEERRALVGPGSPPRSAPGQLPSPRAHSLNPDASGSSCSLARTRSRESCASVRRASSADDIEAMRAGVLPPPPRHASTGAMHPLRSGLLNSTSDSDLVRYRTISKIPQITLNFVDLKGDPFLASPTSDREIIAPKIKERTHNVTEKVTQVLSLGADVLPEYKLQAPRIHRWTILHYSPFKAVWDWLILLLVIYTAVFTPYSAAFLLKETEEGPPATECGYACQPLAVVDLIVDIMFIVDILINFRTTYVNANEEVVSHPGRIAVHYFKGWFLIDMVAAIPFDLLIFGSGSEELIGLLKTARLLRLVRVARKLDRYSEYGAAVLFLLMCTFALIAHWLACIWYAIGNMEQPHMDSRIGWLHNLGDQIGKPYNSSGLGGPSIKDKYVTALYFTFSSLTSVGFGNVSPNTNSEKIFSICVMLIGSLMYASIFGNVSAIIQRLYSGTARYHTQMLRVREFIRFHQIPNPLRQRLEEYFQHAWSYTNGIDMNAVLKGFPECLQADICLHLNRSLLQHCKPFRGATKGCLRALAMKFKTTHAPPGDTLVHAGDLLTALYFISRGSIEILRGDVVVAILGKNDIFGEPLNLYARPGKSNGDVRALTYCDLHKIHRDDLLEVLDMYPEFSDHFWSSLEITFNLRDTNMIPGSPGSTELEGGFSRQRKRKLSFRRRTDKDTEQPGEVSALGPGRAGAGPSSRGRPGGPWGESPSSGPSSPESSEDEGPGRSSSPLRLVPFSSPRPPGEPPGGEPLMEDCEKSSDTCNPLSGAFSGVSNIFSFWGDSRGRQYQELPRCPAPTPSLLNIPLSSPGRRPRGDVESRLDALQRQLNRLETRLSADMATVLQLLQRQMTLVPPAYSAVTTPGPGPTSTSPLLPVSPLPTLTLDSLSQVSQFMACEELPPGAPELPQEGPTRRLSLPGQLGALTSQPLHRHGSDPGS

Sequence of Cytochrome P450 3A4 (P08684 whole entry): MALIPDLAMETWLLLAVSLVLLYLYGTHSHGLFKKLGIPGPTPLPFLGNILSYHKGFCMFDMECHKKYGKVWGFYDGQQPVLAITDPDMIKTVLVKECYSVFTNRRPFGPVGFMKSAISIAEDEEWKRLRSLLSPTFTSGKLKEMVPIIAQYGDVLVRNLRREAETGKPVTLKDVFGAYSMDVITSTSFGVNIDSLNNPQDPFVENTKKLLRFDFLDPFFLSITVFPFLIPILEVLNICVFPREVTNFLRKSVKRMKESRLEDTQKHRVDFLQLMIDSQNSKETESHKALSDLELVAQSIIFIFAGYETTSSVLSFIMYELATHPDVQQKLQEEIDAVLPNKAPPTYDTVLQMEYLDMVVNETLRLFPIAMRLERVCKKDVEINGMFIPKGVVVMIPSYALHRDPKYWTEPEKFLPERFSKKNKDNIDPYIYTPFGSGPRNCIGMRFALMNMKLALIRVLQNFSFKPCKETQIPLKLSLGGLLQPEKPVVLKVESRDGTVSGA
Sequence of Dipeptidyl peptidase 9 (Q86TI2 whole entry): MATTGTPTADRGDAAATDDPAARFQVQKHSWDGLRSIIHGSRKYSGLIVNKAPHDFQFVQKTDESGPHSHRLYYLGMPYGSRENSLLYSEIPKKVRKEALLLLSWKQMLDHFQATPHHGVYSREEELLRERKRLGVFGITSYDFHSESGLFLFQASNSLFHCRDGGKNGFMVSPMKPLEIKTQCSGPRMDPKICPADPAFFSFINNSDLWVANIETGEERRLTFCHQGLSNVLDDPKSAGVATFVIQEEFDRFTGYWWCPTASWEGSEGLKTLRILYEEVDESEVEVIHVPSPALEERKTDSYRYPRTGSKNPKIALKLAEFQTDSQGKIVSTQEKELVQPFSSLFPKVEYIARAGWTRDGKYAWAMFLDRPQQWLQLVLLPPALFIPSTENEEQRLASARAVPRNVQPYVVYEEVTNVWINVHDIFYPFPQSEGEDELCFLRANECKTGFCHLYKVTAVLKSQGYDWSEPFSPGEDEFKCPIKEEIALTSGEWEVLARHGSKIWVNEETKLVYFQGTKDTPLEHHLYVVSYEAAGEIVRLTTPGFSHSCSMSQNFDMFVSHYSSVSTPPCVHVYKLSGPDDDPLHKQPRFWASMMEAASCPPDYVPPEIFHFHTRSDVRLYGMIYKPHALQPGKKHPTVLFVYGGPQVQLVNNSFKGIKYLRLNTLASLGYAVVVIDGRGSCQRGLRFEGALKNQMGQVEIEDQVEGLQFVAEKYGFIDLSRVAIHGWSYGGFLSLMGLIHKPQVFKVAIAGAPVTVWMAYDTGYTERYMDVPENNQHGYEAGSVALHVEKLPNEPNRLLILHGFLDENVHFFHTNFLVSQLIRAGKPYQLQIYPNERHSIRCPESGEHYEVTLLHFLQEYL
Sequence of Dipeptidyl peptidase 8 (Q6V1X1 whole entry): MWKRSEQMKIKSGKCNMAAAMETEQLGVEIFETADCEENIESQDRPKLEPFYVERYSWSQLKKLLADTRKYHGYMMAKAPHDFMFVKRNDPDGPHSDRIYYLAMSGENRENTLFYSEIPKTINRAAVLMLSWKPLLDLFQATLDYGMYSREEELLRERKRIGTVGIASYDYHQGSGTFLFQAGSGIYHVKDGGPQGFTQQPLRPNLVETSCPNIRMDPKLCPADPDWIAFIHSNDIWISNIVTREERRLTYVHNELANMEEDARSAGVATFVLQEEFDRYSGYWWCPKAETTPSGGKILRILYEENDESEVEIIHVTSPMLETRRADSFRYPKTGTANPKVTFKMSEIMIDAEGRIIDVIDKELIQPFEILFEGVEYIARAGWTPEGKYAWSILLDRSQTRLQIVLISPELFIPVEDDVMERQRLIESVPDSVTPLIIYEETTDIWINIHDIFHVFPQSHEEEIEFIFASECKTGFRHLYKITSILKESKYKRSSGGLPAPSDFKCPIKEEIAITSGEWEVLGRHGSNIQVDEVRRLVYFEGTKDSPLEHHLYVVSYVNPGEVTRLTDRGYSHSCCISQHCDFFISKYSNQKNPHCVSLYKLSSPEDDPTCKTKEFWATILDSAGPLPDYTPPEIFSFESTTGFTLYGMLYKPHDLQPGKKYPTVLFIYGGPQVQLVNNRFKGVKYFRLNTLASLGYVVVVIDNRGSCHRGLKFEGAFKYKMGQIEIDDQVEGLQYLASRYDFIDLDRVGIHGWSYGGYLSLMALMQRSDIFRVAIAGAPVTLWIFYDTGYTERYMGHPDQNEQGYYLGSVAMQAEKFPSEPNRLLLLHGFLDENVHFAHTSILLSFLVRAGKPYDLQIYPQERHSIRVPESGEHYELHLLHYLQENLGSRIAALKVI

SMILES	pIC50 [1]	pIC50 [2]	pIC50 [3]	other results
CC#CCn1c(N2CCC[C@@H](N)C2)cc(=O)n(Cc2ccccc2)c1=O	< 4.00	< 4.00	–	–
CC#CCn1c(N2CCC[C@@H](N)C2)cc(=O)n(Cc2ccc3ccc(F)cc3n2)c1=O	< 4.00	< 4.00	4.26	–
CC#CCn1c(N2CCC[C@@H](N)C2)cc(=O)n(Cc2ccc3cc(OC)ccc3n2)c1=O	< 4.00	< 4.00	4.37	–
CC#CCn1c(N2CCC[C@@H](N)C2)cc(=O)n(Cc2cc(Cl)c3ccccc3n2)c1=O	< 4.00	–	4.85	–
Cn1c(=O)cc(N2CCC[C@@H](N)C2)n(Cc2ccccc2C#N)c1=O [ALOGLIPTIN]	–	–	–	inhibition in vivo at 1 mg/kg [4]: 0.5%; inhibition in vivo at 1 mg/kg [5]: 27.6%; inhibition in vivo at 1 mg/kg [6]: 49.4%; inhibition in vivo at 1 mg/kg [7]: 72.6%; inhibition in vivo at 3 mg/kg [8]: 0.8%; inhibition in vivo at 3 mg/kg [9]: 50.9%; inhibition in vivo at 3 mg/kg [10]: 71.5%; inhibition in vivo at 3 mg/kg [11]: 83.8%; half-life [12]: 2 h
CC#CCn1c(N2CCC[C@@H](N)C2)cc(=O)n(Cc2ccc3cc(Br)ccc3n2)c1=O	< 4.00	< 4.00	4.10	–
CC#CCn1c(N2CCC[C@@H](N)C2)cc(=O)n(Cc2ccc3cc(F)ccc3n2)c1=O	< 4.00	< 4.00	4.23	–
CC#CCn1c(N2CCC[C@@H](N)C2)cc(=O)n(Cc2ncccn2)c1=O	< 4.00	< 4.00	–	–
CC#CCn1c(N2CCC[C@@H](N)C2)cc(=O)n(Cc2ccc3ccc(Cl)cc3n2)c1=O	< 4.00	< 4.00	4.34	inhibition in vivo at 1 mg/kg [4]: 11.5%; inhibition in vivo at 1 mg/kg [5]: 71.6%; inhibition in vivo at 1 mg/kg [6]: 76%; inhibition in vivo at 1 mg/kg [7]: 51.8%; inhibition in vivo at 3 mg/kg [8]: 13.5%; inhibition in vivo at 3 mg/kg [9]: 82.3%; inhibition in vivo at 3 mg/kg [10]: 84.7%; inhibition in vivo at 3 mg/kg [11]: 80.4%; bioavailability [13]: 73%; Vd/F [14]: 8.65 L/kg; AUC(0-t) [15]: 17600 ng·h/mL; clearance [16]: 17.5 mL/min/kg; half-life [17]: 5.65 h; half-life [12]: 5.02 h; pIC50 [18]: < 4.00
CC#CCn1c(N2CCC[C@@H](N)C2)cc(=O)n(Cc2nc3ccccc3[nH]2)c1=O	< 4.00	< 4.00	–	–

Now from value to compound, other results behind:

pIC50 [1]	pIC50 [2]	pIC50 [3]	SMILES	other results
< 4.00	< 4.00	4.01	CC#CCn1c(N2CCC[C@@H](N)C2)cc(=O)n(Cc2ccc3ccccc3n2)c1=O	bioavailability [13]: 63%; half-life [12]: 4.2 h
< 4.00	< 4.00	4.33	CC#CCn1c(N2CCC[C@@H](N)C2)cc(=O)n(Cc2ccc3cc(C)ccc3n2)c1=O	–
< 4.00	< 4.00	–	CC#CCn1c(N2CCC[C@@H](N)C2)cc(=O)n(CC#CC)c1=O	–
< 4.00	< 4.00	–	CC#CCn1c(N2CCC[C@@H](N)C2)cc(=O)n(Cc2ccc3c(ccc4ccccc43)n2)c1=O	–
< 4.00	< 4.00	4.04	CC#CCn1c(N2CCC[C@@H](N)C2)cc(=O)n(Cc2ccc3cc(Cl)ccc3n2)c1=O	–
